According to patent US5603963A, “Method for the treatment of retroviral diseases such as acquired immune deficiency syndrome utilizing (pseudo)halogen complexes of gold(1)” (priority 1994, dated 1997):
Read-outs that look alike come from different tables or passages of the source.

What was measured:
AIDS = settings: cited from earlier work
[1] = system: HIV reverse transcriptase; settings: in vitro; cited from earlier work
HIV = settings: CEM cells; concentrations in the 6ppm range; cited from earlier work
cells = settings: cited from earlier work
[2] = design: species or system patients; settings: human, in vivo
Description: A powerful means to attack the AIDS virus (HIV) would be to find a specific inhibitor of the viral reverse transcriptase. If this enzyme cannot function, viral replication cannot take place. The significant aspect of the viral life cycle which must be considered is that the viral replication takes place intracellularly. Thus, agents which may work in a test tube to inhibit the enzyme activity will have no effect on the virus itself unless the agent is capable of entering cells and developing an effective intracellular concentration.

## Cc1cn([C@H]2C[C@H](N=[N+]=[N-])[C@@H](CO)O2)c(=O)[nH]c1=O [AZT, azidothymidine]
AIDS; AIDS
  side effects: significant side effects

## O=c1[nH]cnc2c1ncn2[C@H]1CC[C@@H](CO)O1 [DDI, dideoxyinosine]
AIDS; in vivo
  side effects: significant side effects

## bis(thioglucose)gold(I)
[1]
  inhibition of HIV reverse transcriptase: does inhibit HIV reverse transcriptase
HIV
  inhibition of the infectivity of HIV: inhibit the infectivity of HIV

## gold(I) thioglucose [Solganol]
cells
  ability to enter cells: inherently unable to enter cells
[2]
  levels of gold inside cells (in words): well below the levels required to inhibit the enzyme in vitro
  levels of gold inside cells relative to amount found in blood: less than 5%
[1]
  inhibition of HIV reverse transcriptase: inhibit HIV reverse transcriptase

## sodium gold(I) thiomalate [Myochrysine]
Whole blood
  gold remaining in the incubation medium: ~90%
  total gold found in the cell lysate: about 5%
  total gold in Cell lysate: 4%
  total gold in Membranes: 6%
  total gold in Supernatant: 90%
Red blood cells
  total gold in Cell lysate: 6%
  total gold in Membranes: 10%
  total gold in Supernatant: 84%
